{"source": "patent US11529323B2", "about": "(priority 2017, dated 2022)", "key": {"[1]": {"test_system": "C-26 colon adenocarcinoma cachexia model", "experiment": "Combined androgen and AR-42 study (Study 3), C-26 model", "format": "in vivo, mouse", "details": "Study 3", "experimental": "These studies were performed as previously described (Tseng Y C, et al. J Natl Cancer Inst. 2015 107(12):djv274) with modifications. Tumors were established in the right flank by subcutaneous injection of C-26 cells (0.5×10^6 cells in 0.1 mL). […] TFM-4AS-1 (a potent experimental SARM), dihydrotestosterone (DHT) and vehicles were administered by subcutaneous injection.\nSix days after cell injection, animals with palpable tumors were treated once daily for 13 days with vehicles for AR-42 and TFM-4AS-1/DHT (n=9), AR-42 (10 mg/kg; TFM-4AS-1/DHT vehicle; n=10), TFM-4AS-1 (10 mg/kg; AR-42 vehicle; n=9), DHT (3 mg/kg; AR-42 vehicle; n=10), the combination of AR-42 and TFM-4AS-1 (10 mg/kg each; n=9), or the combination of AR-42 (10 mg/kg) and DHT (3 mg/kg)(n=10). Grip strength was measured and tissues collected as in the previous studies.\nForelimb grip strength was measured using Bio-GS3 Grip Strength Test Meter (Forceleader DBA Bioseb, Pinellas Park, Fla.). Each mouse was held by the base of its tail and lowered over the apparatus until its forepaws grasped the metal pull bar. The mouse was then gently pulled horizontally in a straight line away from the grip strength meter until the mouse released the bar. The force applied to the bar at the moment of release was recorded as the peak force. Five measurements were taken from each mouse, the average of which was designated as the mouse's grip strength."}, "[2]": {"details": "Jones et al. 2010; cited from earlier work"}}}
{"compound": "C[C@]12CCC(=O)C[C@@H]1CC[C@@H]1[C@@H]2CC[C@]2(C)[C@@H](O)CC[C@@H]12", "note": "[DHT, dihydrotestosterone]", "values": [{"measurement": "tumor growth", "setting": "[1]; DHT alone 3 mg/kg, after 8 days of administration", "result": "tumor growth was significantly suppressed"}]}
{"compound": "C[C@](O)(COc1ccc(Cl)c(F)c1)C(=O)Nc1ccc(C#N)c(C(F)(F)F)c1", "note": "[S-23]", "values": [{"measurement": "effect on orchiectomy- and glucocorticoid-mediated wasting", "setting": "[2]", "result": "reversed orchiectomy- and glucocorticoid-mediated wasting"}]}
{"compound": "CN1C(=O)C=C[C@]2(C)[C@H]3CC[C@]4(C)[C@@H](C(=O)Nc5ccccc5C(F)(F)F)CC[C@H]4[C@@H]3CC[C@@H]12", "note": "[TFM-4AS-1]", "values": [{"measurement": "effect on body weight", "setting": "[1]; TFM-4AS-1 10 mg/kg monotherapy", "result": "did not spare body weight"}, {"measurement": "effect on mass of gastrocnemius or quadriceps", "setting": "[1]; monotherapy (TFM-4AS-1 10 mg/kg; AR-42 10 mg/kg)", "result": "did not spare"}]}
